Measurements from patent publication EP4467141A1, “PYRAZOLO-QUINOLINES AS SELECTIVE INHIBITORS OF GENOTOXIC STRESS-INDUCED IKK/NF- KB PATHWAYS FOR CANCER THERAPY” (Max-Delbrück-Centrum für Molekulare Medizin in der …, priority 2023, dated 2024).

Legend:
Experiment in all cases: Kinase panel study
Assay type in all cases: biochemical
Conditions in all cases: read-out: Percentage of inhibition; for inhibition at 1 µM: 1000nM; for inhibition at 10 µM: 10000nM
SNF1LK2 = biological target: T1, SNF1LK2 (Homo sapiens, UniProt Q9H0K1)
T1 construct: purchased Thermo Fisher Scientific
T1 sequence (Q9H0K1 whole entry): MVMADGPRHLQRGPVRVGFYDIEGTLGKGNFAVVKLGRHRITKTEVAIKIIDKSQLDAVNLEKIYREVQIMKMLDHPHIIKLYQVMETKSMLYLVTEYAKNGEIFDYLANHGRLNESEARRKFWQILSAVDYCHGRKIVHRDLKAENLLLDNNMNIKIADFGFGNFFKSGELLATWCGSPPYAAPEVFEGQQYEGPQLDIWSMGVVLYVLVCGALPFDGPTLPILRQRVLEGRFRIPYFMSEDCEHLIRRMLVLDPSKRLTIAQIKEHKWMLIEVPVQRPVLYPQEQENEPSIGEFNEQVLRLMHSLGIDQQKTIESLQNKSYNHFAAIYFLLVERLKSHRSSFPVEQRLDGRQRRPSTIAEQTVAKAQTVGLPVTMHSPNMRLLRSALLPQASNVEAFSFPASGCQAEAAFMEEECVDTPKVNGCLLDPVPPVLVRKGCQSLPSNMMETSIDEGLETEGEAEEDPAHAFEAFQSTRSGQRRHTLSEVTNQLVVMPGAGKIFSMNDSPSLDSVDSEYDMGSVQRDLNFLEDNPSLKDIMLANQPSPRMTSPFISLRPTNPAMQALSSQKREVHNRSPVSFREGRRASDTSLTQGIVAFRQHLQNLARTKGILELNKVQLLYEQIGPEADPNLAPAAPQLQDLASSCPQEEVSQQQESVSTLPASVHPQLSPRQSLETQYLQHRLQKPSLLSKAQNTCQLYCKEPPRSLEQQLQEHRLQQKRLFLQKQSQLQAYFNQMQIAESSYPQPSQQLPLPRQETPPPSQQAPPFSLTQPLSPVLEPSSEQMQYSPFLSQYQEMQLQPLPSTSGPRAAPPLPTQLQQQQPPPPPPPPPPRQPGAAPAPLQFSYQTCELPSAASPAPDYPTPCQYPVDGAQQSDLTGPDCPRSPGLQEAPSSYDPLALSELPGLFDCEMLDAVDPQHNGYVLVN
Outline: (§1)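 Readout is percentage kinase inhibition. Testing used 1 µM or 10 µM compound in externally run ZLyte/Adapta in vitro assays, and IC50 values were derived within the same panel.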

MARK4 = biological target: T2, MARK4 (Homo sapiens, UniProt Q96L34)
T2 construct: purchased Thermo Fisher Scientific
T2 sequence (Q96L34 1-752): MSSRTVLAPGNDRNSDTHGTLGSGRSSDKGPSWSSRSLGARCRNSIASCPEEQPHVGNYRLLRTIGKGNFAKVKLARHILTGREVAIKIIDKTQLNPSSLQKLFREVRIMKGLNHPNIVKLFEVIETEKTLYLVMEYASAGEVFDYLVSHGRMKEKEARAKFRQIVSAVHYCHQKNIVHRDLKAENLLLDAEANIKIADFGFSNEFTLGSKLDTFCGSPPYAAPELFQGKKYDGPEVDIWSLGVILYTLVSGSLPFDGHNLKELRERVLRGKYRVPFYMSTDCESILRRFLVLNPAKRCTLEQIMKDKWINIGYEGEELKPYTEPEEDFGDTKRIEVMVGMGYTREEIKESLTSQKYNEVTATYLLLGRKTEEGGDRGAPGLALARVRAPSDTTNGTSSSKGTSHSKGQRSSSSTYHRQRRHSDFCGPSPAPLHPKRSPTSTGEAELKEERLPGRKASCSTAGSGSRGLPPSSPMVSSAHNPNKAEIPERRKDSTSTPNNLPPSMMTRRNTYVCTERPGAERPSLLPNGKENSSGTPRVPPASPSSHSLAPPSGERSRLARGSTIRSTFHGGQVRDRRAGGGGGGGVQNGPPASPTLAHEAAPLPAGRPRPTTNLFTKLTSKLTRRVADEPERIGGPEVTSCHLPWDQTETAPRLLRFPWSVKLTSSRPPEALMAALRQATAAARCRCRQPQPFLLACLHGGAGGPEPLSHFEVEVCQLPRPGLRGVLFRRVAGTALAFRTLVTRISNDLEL
Outline: as §1

EGFR (ErbB1) L858R = biological target: T3, EGFR (ErbB1) L858R (Homo sapiens, UniProt P00533, L858R)
T3 construct: purchased Thermo Fisher Scientific
T3 sequence (P00533 25-1210 L858R): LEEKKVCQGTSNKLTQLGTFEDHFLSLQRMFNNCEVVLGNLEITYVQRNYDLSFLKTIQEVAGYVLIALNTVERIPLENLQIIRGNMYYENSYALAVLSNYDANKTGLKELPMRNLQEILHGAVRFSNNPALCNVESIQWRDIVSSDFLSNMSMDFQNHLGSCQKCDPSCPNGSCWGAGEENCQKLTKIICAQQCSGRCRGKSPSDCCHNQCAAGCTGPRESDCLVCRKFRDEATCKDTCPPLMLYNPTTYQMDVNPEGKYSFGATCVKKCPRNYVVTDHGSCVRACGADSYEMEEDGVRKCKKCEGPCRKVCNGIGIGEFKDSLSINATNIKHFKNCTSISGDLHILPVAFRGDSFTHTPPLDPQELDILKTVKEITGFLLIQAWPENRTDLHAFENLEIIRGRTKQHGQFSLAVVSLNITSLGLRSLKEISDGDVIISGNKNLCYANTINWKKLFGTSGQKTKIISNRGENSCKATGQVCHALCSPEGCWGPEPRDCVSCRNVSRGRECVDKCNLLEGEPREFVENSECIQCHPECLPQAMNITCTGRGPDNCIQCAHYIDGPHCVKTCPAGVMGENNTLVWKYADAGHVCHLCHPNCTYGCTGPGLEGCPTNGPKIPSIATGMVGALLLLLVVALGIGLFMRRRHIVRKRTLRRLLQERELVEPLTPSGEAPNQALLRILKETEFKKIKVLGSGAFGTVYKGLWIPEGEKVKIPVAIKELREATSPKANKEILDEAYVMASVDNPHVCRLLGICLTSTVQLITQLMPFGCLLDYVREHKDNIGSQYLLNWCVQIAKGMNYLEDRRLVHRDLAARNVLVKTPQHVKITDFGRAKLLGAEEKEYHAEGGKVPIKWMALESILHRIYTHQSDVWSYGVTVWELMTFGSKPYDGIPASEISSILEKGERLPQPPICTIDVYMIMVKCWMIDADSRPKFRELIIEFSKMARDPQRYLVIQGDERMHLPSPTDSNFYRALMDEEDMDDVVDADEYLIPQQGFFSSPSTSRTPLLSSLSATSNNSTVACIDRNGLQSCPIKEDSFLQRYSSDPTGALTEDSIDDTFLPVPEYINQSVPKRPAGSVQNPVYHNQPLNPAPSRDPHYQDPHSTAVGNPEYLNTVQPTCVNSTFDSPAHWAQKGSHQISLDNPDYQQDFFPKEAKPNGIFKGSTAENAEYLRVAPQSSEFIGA
Outline: as §1

RPS6KA4 (MSK2) = biological target: T4, RPS6KA4 (MSK2) (Homo sapiens, UniProt O75676)
T4 construct: purchased Thermo Fisher Scientific
T4 sequence (O75676 whole entry): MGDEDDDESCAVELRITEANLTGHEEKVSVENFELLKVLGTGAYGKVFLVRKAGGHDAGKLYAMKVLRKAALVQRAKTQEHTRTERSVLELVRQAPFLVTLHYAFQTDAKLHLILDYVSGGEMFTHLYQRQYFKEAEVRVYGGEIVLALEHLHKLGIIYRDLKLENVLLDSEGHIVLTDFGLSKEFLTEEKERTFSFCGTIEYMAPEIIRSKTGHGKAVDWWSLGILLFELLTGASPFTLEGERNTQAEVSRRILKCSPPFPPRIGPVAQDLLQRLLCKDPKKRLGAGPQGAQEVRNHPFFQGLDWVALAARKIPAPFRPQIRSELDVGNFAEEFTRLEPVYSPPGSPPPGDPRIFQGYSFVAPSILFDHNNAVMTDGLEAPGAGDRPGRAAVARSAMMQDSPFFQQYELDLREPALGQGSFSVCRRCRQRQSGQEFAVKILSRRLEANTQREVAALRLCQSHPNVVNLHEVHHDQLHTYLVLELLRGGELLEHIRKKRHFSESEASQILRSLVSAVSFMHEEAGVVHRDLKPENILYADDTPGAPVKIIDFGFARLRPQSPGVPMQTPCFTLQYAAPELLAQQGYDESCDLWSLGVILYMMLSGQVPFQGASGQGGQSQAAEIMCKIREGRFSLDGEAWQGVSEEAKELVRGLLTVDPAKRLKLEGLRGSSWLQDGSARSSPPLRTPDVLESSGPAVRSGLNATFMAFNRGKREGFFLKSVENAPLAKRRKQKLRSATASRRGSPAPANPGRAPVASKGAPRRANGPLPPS
Outline: as §1

TBK1 = biological target: T5, TBK1 (Homo sapiens, UniProt Q9UHD2)
T5 construct: purchased Thermo Fisher Scientific
T5 sequence (Q9UHD2 1-729): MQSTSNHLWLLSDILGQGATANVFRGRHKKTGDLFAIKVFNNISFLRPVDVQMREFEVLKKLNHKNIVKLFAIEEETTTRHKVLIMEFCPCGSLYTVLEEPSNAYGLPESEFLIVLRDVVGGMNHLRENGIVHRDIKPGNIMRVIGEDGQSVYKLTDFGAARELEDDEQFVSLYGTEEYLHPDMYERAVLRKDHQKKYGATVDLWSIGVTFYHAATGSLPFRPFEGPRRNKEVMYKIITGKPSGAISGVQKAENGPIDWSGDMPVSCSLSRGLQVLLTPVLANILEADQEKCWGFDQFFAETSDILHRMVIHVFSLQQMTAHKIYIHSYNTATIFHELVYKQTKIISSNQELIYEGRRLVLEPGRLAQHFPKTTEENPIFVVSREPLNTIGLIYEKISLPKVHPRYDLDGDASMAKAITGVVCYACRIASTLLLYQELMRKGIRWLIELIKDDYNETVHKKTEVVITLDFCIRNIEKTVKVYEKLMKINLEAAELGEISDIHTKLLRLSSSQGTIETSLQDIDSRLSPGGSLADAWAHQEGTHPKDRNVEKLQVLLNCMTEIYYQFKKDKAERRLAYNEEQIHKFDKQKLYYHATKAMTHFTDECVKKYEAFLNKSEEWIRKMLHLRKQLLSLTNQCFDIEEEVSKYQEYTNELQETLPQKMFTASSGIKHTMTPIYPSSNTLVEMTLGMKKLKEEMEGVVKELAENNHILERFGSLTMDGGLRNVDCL
Outline: as §1

PAK2 (PAK65) = biological target: T6, PAK2 (PAK65) (Homo sapiens, UniProt Q13177)
T6 construct: purchased Thermo Fisher Scientific
T6 sequence (Q13177 whole entry): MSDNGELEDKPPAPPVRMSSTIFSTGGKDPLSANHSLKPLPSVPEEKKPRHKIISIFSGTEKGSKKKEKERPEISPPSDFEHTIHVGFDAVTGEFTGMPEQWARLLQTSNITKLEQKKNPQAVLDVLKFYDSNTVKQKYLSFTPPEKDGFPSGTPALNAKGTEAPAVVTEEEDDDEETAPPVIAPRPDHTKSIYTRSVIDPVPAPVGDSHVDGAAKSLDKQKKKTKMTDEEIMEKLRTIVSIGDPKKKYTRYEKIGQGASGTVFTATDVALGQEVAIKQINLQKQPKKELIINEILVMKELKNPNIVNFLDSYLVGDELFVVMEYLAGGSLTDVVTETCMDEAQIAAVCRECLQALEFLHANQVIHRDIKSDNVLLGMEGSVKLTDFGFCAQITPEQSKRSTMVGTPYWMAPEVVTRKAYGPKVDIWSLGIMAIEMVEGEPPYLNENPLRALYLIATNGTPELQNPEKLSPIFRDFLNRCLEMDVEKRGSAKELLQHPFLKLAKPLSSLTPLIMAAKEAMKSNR
Outline: as §1

SMILES: COc1ccc2c(c1OC)c(=O)n1c3ccc(O)cc3c3ccnc2c31 [MW01, 5-Hydroxy-10,11-dimethoxy-9H-benzo[c]indolo[3,2,1-ij][1,5]naphthyridin-9-one]
- inhibition at 1 µM (SNF1LK2): 5%
- inhibition at 10 µM (SNF1LK2): 12%
- inhibition at 1 µM (MARK4): 9%
- inhibition at 10 µM (MARK4): 15%
- inhibition at 1 µM (EGFR (ErbB1) L858R): 3%
- inhibition at 10 µM (EGFR (ErbB1) L858R): 5%
- inhibition at 1 µM (RPS6KA4 (MSK2)): 12%
- inhibition at 10 µM (RPS6KA4 (MSK2)): 24%
- inhibition at 1 µM (TBK1): 8%
- inhibition at 10 µM (TBK1): 17%
- inhibition at 1 µM (PAK2 (PAK65)): 14%
- inhibition at 10 µM (PAK2 (PAK65)): 7%

SMILES: COc1ccc2cc3c(N)nn(C(=O)c4cccc(N(C)C)c4)c3nc2c1 [MW05, (3-Amino-7-methoxypyrazolo[3,4-b]quinolin-1-yl)-[3-(dimethylamino)phenyl]methanone]
- inhibition at 1 µM (SNF1LK2): 4%
- inhibition at 10 µM (SNF1LK2): -2%
- inhibition at 1 µM (MARK4): -3%
- inhibition at 10 µM (MARK4): -10%
- inhibition at 1 µM (EGFR (ErbB1) L858R): 6%
- inhibition at 10 µM (EGFR (ErbB1) L858R): 16%
- inhibition at 1 µM (RPS6KA4 (MSK2)): -3%
- inhibition at 10 µM (RPS6KA4 (MSK2)): 4%
- inhibition at 1 µM (TBK1): 11%
- inhibition at 10 µM (TBK1): -8%
- inhibition at 1 µM (PAK2 (PAK65)): 14%
- inhibition at 10 µM (PAK2 (PAK65)): 4%
